Patent US9044409B2, “Use of chromen-4-one derivatives” (Merck Patent GmbH, priority 2003, dated 2015)
Values belong to the compound of their own block, whether it stands above or below them.

Assays:
[1] = tested on: keratinocyte cultures; settings: cited from earlier work
[2] = tested on: PGE2 release from human keratinocytes (cell line NCTC R13); assay: Antiinflammatory properties (PGE2 assay): PMA-induced PGE2 release, ELISA; assay type: cell-based; settings: for PGE2: PMA-stimulated, 24 h; for PGE2 release % compared with control: control (only PMA) = 100
Procedure: Human keratinocytes of the cell line NCTC R13 are pre-cultivated for 24 hours at 37° C. in a 5% CO2 atmosphere with DMEM culture medium (Life Technologies). The cells are treated with LU for 24 hours, and the culture medium is then removed. A fresh culture medium containing the inflammation-triggering active ingredient phorbol myristate acetate (PMA; […]) and LU is added. After incubation for 24 hours, the culture medium is collected and analysed. By means of an ELISA DE0100 kit (R&D Systems), the release is used in order to investigate the release of the inflammation marker prostaglandin E2 (PGE2) (Table).

[3] = biological target: T1, hyaluronidase (HYAL, Sigma type IV-S, H3884) (Bos taurus, UniProt Q2YDK3); assay: Action on the activity of hyaluronidase (remaining hyaluronic acid determined photometrically); assay type: biochemical; settings: for Hyaluronidase activity: control (no LU) = 100
T1 construct: hyaluronidase (HYAL, Sigma type IV-S, H3884)
T1 sequence (Q2YDK3 1-553): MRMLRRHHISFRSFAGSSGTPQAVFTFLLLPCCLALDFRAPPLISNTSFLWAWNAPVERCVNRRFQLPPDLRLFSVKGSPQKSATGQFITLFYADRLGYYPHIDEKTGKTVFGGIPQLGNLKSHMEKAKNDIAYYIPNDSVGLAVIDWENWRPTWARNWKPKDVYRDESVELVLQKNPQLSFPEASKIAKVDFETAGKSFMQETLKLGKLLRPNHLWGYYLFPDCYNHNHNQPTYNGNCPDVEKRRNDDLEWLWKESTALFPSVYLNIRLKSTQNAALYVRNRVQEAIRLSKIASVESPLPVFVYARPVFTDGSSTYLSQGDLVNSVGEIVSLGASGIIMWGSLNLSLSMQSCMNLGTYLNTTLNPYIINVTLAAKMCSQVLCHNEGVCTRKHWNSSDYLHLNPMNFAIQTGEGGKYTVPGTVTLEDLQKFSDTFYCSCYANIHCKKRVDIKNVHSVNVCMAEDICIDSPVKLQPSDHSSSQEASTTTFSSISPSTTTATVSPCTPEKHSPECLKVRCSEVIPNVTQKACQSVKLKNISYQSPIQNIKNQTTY
Procedure: 5,7-Dihydroxy-2-methylchromen-4-one in phosphate buffer (0.1 M) is pre-incubated with hyaluronidase (HYAL, Sigma type IV-S, H3884; 1 mg/l in phosphate buffer (0.1 M)). Hyaluronic acid (HA, Sigma H-1876; 1.2 mg/ml) is subsequently added, and the mixture is incubated at 37° C. for 1 hour. The remaining hyaluronic acid (HA) is subsequently precipitated using serum albumen (BSA, Sigma A7888) and determined photometrically.

[4] = biological target: T2, elastase (from human leukocytes) (Homo sapiens, UniProt P08246); assay: Action on the activity of leukocyte elastase (fluorescence, elastin substrate); assay type: biochemical
T2 construct: elastase (from human leukocytes; Sigma E8140; 100 mU/well); purchased Sigma E8140; host or cells: human leukocytes
T2 sequence (P08246 30-267): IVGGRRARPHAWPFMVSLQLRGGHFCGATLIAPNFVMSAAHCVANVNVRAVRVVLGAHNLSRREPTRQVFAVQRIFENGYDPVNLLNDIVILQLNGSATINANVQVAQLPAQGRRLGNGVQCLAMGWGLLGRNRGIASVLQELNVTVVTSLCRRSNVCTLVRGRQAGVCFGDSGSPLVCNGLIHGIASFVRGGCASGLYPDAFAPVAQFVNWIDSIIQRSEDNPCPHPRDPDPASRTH
Procedure: 5,7-Dihydroxy-2-methylchromen-4-one in TRIS buffer (500 mM) is incubated for 10 minutes on ice with elastase (from human leukocytes; Sigma E8140; 100 mU/well). 5 μg/well of elastin are subsequently added, and the plates are incubated at 37° C. for 2 hours. The fluorescence is determined using a Spectromax Gemini spectrometer (Molecular Devices) at λex=485 nm and λem=538 nm.

[5] = over the entire pH range; cited from earlier work

SMILES: O=C1CCOc2ccccc21 [Example 4-chromanone, 4-chromanone]
cell differentiation [1]: promotes cell differentiation
lipid production [1]: stimulates lipid production

inhibition at 3125 µM ([3]; 3.125 mM LU): 9%
Hyaluronidase activity ([3]; 3.125 mM LU): 91
inhibition at 6250 µM ([3]; 6.25 mM LU): 19%
Hyaluronidase activity ([3]; 6.25 mM LU): 81
inhibition at 12500 µM ([3]; 12.5 mM LU): 37%
Hyaluronidase activity ([3]; 12.5 mM LU): 63
inhibition at 25000 µM ([3]; 25 mM LU): 63%
Hyaluronidase activity ([3]; 25 mM LU): 37
% quenching ([4]; 40 μM LU): 0%
Fluorescence intensity ([4]; 40 μM LU): 2195.9
inhibition at 40 µM ([4]; 40 μM LU): 10%
remaining activity at 40 µM ([4]; 40 μM LU, neg. control = 100, read-out: Elastase activity % compared with control): 90%
% quenching ([4]; 200 μM LU): 19%
Fluorescence intensity ([4]; 200 μM LU): 1096.4
inhibition at 200 µM ([4]; 200 μM LU): 45%
remaining activity at 200 µM ([4]; 200 μM LU, neg. control = 100, read-out: Elastase activity % compared with control): 45%
SMILES: Cc1cc(=O)c2c(O)cc(O)cc2o1 [LU, 5,7-dihydroxy-2-methylchromen-4-one]
PGE2 ([2]; 0.008 mM LU): 340.62 ng/mL
PGE2 release % compared with control ([2]; 0.008 mM LU): 113%
PGE2 ([2]; 0.04 mM LU): 226.39 ng/mL
PGE2 release % compared with control ([2]; 0.04 mM LU): 75%
PGE2 ([2]; 0.2 mM LU): 6.31 ng/mL
PGE2 release % compared with control ([2]; 0.2 mM LU): 2%
PGE2 release on exposure to PMA (in words) ([2]; doses of 0.2 mM and 0.04 mM): clear reduction in PGE2 release
Inhibition of hyaluronidase activity (in words) ([3]; in the doses investigated (3.125-25 mM)): clear inhibition of hyaluronidase activity
Inhibition of the elastase activity (in words) ([4]; doses of 200 μM and 40 μM): clear inhibition of the elastase activity

SMILES: O=c1c(O)c(-c2ccc(O)c(O)c2)oc2cc(O)cc(O)c12 [Quercetin, 3,3′,4′,5,7-pentahydroxyflavone]
antioxidant activity [5]: greatest activity amongst the structures investigated
